Source: patent US9266867B2, “Piperidinyl monocarboxylic acids as S1P1 receptor agonists” (BIOPROJET, priority 2011, dated 2016)
Counter-ions that a name gives are not always drawn. Like-named read-outs stand apart in the source and are kept apart here.

Columns and labels:
EDG5 = EDG5 (Homo sapiens, UniProt O95136); assay: 35S-GTPγS binding assay, EDG5 (S1P2); format: biochemical; conditions: Table 1a
Description: (§1) a) 35S-GTPγS Binding Assay GTP-γ-^35S binding was performed using […]15 μg protein of cell membranes suspended in 50 mM tris-HCl pH 7.5 containing 10 mM MgCl2, 100 mM NaCl and 10 μM GDP. The radioligand was 0.025 nM [^35S] GTP-γ-S and non specific binding determined in the presence of 10 μM non-radioactive GTP-γ-S. […] The maximal stimulation elicited by S1P was taken as a reference to define full or partial agonism and calculate the intrinsic activity (i.a.) of compounds.

EDG-1 = EDG-1 (Homo sapiens, UniProt P21453); assay: 35S-GTPγS binding assay, EDG1 (S1P1); format: biochemical; set-up: expressed in transfected cells
Description: as §1

EDG3 = EDG3 (Homo sapiens, UniProt Q99500); assay: 35S-GTPγS binding assay, EDG3 (S1P3); format: biochemical; conditions: Table 1a
Description: as §1

hERG channel = hERG channel (Homo sapiens, UniProt Q12809); assay: biochemical
Description: c) Evaluation of Activity for hERG Blockade Liability
HEK293 cells were stably transfected with the human hERG receptor gene. Binding assays were performed using 5 μg of cell membranes expressing hERG channel resuspended in 10 mM Hepes pH 7.4, 135 mM NaCl, 60 mM DL-Aspartic Acid Potassium, 1 mM EGTA, 0.8 mM MgCl2, 10 mM (D+) Glucose, 0.01% BSA, in a final volume of 200 μL. For [^3H] […] Non specific binding was estimated in the presence of 1 μM Astemizole. The reaction was terminated by filtration through Durapore BV 1.2 μm filters pre-soaked in 3% polyethyleneimine 10 minutes at room temperature. Filters were rinsed 2 times with 250 μL of ice cold 25 mM Tris-HCl pH 7.4 buffer. The filter-bound radioactivity was measured in a liquid scintillation counter with 50 μL of scintillation fluid. [^3H]
The hERG binding investigated by use of [^3H]

circulating lymphocytes = assay: Assessment of lymphopenia in rats; format: in vivo; conditions: for Lymphopenia in rats % lymphopenia at given dose at 24 hrs: 0.3 mpk
Description: b) Assessment of Lymphopenia
Lymphopenia was assessed in vivo. Experiments were done in non-fasted/fasted Swiss mice and/or: Sprague Dawley rats, Wistar rats, Beagle dogs, Cynomolgus monkeys. Compounds were administered orally in suspension in carboxymethyl-cellulose 0.5-1% in water (W/V). Blood was taken on anesthetized/non anaesthetized animal (4% isoflurane) and samples collected in EDTA-containing vacuum tubes from 1 h 30 to 72 hours post administration for lymphopenia measurement.
After 10 minutes stirring, cells were counted using ABC Vet haemocytometer (Scil vet animal Care) for rodent and dog or ADVIA 120 hematology analyzer for monkeys. Pharmacodynamic effect was measured by the decrease in circulating lymphocytes by test item treatment in comparison with haematological parameters of control animals or versus predosing in the same animals.

[1] = Table 1a, read-out: EC50 (nM) EDG1
[2] = comparative examples table, read-out: EDG1 EC50

EDG5, sequence (O95136 whole entry, species assumed): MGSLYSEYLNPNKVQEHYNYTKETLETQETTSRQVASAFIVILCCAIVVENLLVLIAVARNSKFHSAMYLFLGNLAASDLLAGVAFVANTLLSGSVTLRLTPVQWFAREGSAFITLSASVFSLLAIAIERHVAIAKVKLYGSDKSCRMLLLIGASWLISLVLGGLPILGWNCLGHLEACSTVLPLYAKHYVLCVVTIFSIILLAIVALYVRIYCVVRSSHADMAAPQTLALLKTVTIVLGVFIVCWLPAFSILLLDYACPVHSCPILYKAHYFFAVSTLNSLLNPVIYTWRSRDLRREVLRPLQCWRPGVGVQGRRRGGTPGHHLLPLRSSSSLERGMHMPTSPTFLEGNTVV
hERG channel, sequence (Q12809 whole entry): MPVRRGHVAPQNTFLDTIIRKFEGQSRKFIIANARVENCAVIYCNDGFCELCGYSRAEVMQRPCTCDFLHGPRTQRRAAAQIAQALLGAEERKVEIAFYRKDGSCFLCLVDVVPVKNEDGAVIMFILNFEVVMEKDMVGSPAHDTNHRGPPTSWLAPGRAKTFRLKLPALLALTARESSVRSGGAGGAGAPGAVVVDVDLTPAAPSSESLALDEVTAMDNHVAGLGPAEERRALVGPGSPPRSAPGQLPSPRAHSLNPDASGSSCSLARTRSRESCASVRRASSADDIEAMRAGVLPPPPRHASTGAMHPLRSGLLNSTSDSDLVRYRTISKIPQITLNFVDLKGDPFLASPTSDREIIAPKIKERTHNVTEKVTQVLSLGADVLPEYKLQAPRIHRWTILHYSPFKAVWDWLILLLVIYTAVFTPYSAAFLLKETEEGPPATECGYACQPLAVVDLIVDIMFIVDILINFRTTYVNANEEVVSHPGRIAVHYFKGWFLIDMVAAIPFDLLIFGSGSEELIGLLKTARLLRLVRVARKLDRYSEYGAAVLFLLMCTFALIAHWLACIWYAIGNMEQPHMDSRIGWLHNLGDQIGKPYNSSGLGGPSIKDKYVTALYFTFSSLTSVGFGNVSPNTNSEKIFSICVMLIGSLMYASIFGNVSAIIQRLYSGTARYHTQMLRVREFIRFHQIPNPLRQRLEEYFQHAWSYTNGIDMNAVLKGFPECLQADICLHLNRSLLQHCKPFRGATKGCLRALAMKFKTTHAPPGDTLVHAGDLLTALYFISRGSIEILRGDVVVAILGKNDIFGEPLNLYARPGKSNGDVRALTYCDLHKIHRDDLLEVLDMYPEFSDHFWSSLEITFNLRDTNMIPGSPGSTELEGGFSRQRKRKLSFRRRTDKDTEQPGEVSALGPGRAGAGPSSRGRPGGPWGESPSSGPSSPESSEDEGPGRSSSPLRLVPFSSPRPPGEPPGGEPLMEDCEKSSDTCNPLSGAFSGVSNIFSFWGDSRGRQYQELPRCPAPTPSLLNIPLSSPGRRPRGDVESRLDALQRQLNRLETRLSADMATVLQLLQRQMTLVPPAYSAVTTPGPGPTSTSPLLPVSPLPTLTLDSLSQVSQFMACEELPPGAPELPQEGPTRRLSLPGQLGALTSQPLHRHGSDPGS
EDG-1, sequence (P21453 whole entry): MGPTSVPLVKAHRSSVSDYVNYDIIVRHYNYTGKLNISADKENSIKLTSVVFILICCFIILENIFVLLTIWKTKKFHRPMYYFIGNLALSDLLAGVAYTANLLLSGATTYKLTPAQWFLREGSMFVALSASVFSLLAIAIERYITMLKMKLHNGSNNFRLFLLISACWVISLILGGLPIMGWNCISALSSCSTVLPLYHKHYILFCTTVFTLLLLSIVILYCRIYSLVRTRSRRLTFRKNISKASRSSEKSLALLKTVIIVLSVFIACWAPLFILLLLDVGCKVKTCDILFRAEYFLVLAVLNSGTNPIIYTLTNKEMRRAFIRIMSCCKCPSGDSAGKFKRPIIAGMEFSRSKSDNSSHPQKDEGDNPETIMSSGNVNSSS
EDG3, sequence (Q99500 whole entry, species assumed): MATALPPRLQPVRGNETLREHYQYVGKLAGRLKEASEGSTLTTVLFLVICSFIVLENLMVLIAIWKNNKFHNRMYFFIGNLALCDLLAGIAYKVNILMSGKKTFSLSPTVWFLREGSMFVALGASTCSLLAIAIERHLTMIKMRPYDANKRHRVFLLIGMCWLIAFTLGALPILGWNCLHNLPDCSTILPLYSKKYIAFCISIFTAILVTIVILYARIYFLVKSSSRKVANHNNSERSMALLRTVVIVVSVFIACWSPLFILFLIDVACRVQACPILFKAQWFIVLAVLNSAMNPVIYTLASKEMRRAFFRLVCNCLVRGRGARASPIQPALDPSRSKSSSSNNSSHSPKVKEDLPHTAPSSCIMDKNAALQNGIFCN

| Compound | EC50 (EDG-1; [1]) [nM] | EC50 (EDG-1; Table 1b, read-out: EDG1 EC50) [nM] | Ki (hERG channel) [nM] | other results |
| --- | --- | --- | --- | --- |
| CC1(C(=O)O)CCN(Cc2ccc(-c3noc(-c4ccc(C5CCCCC5)c(Cl)c4)n3)cc2)CC1 [Example 1, 1-{4-[5-(3-chloro-4-cyclohexylphenyl)-[1,2,4]-oxadiazol-3-yl]benzyl}-4-methylpiperidine-4-carboxylic acid] | < 1 | < 1 | > 10000 | EC50 (EDG5): > 1000 nM; EC50 (EDG3): > 1000 nM |
| CCCC1(C(=O)O)CCN(Cc2ccc(-c3noc(-c4ccc(CC(C)C)c(Cl)c4)n3)cc2)CC1 [Example 13, 1-{4-[5-(3-chloro-4-isobutylphenyl)-[1,2,4]-oxadiazol-3-yl]benzyl}-4-propylpiperidine-4-carboxylic acid tert-butyl amine salt] | < 1 | < 1 | > 10000 | EC50 (EDG5): > 1000 nM; EC50 (EDG3): > 1000 nM |
| CC(C)Cc1ccc(-c2nc(-c3ccc(CN4CCC(C(=O)O)CC4)cc3)no2)cc1.Cl [compound 2] | – | – | – | Lymphopenia in rats % lymphopenia at 1 mpk/p.o dose 8 Hrs (circulating lymphocytes): −25%; Lymphopenia in rats % lymphopenia at 1 mpk/p.o dose 24 Hrs (circulating lymphocytes): −101%; EC50 (EDG-1; [2]): 57.2 nM |
| Cl.O=C(O)C1CCN(Cc2ccc(-c3noc(-c4ccc(C5CCCCC5)cc4)n3)cc2)CC1 [compound 4] | – | – | – | Lymphopenia in rats % lymphopenia at 1 mpk/p.o dose 8 Hrs (circulating lymphocytes): 2%; Lymphopenia in rats % lymphopenia at 1 mpk/p.o dose 24 Hrs (circulating lymphocytes): −57%; EC50 (EDG-1; [2]): 13.9 nM |
| CC(C)Cc1ccc(-c2nc(-c3ccc(CN4CCC(CO)(C(=O)O)CC4)cc3)no2)cc1Cl [Example 15, 1-{4-[5-(3-chloro-4-isobutylphenyl)-[1,2,4]-oxadiazol-3-yl]benzyl}-4-hydroxymethylpiperidine-4-carboxylic acid tert-butyl amine salt] | < 1 | < 1 | > 10000 | Lymphopenia in rats % lymphopenia at given dose at 24 hrs (circulating lymphocytes; Sprague-Dawley female): 69% (0.3 mpk); EC50 (EDG5): > 1000 nM; EC50 (EDG3): > 1000 nM |
| O=C(O)C1CCN(Cc2ccc(-c3noc(-c4ccc(-c5ccccc5)c(F)c4)n3)cc2)CC1 [compound 1] | – | – | – | Lymphopenia in rats % lymphopenia at 1 mpk/p.o dose 8 Hrs (circulating lymphocytes): 18%; Lymphopenia in rats % lymphopenia at 1 mpk/p.o dose 24 Hrs (circulating lymphocytes): −54%; EC50 (EDG-1; [2]): 11.7 to 19.8 nM |
| COCC1(C(=O)O)CCN(Cc2ccc(-c3noc(-c4ccc(C5CCCC5)c(Cl)c4)n3)cc2)CC1 [Example 9, 1-{4-[5-(3-chloro-4-cyclopentylphenyl)-[1,2,4]-oxadiazol-3-yl]benzyl}-4-methoxymethylpiperidine-4-carboxylic acid tert-butyl amine salt] | < 1 | < 1 | > 10000 | EC50 (EDG5): > 1000 nM; EC50 (EDG3): > 1000 nM |
| CC(C)Cc1ccc(-c2nc(-c3ccc(CN4CCC(C)(C(=O)O)CC4)cc3)no2)cc1Cl [Example 2, 1-{4-[5-(3-chloro-4-isobutylphenyl)-[1,2,4]-oxadiazol-3-yl]benzyl}-4-methylpiperidine-4-carboxylic acid, tert-butylamine salt] | < 1 | < 1 | > 10000 | Lymphopenia in rats % lymphopenia at given dose at 24 hrs (circulating lymphocytes; Sprague-Dawley female): 76% (0.3 mpk) |
| CCC1(C(=O)O)CCN(Cc2ccc(-c3noc(-c4ccc(CC(C)C)c(Cl)c4)n3)cc2)CC1 [Example 11, 1-{4-[5-(3-chloro-4-isobutylphenyl)-[1,2,4]-oxadiazol-3-yl]benzyl}-4-ethylpiperidine-4-carboxylic acid tert-butyl amine salt] | < 1 | < 1 | > 10000 | Lymphopenia in rats % lymphopenia at given dose at 24 hrs (circulating lymphocytes; Wistar female): 75% (0.3 mpk); EC50 (EDG5): > 1000 nM; EC50 (EDG3): 198 nM |
| CC(C)Cc1ccc(-c2nc(-c3ccc(CN4CCC(CCCN5CCCC5)(C(=O)O)CC4)cc3)no2)cc1Cl [Example 66, 1-{4-[5-(3-Chloro-4-isobutyl-phenyl)-[1,2,4]-oxadiazol-3-yl]-benzyl}-4-(3-pyrrolidin-1-yl-propyl)-piperidine-4-carboxylic acid tert-butyl amine salt] | – | < 10 | – | – |
| CC(C)Cc1ccc(-c2nc(-c3ccc(CN4CCC(Cc5cccs5)(C(=O)O)CC4)cc3)no2)cc1Cl [Example 62, 1-{4-[5-(3-Chloro-4-isobutyl-phenyl)-[1,2,4]-oxadiazol-3-yl]-benzyl}-4-thiophen-2-ylmethyl-piperidine-4-carboxylic acid tert-butyl amine salt] | – | < 1 | – | – |
| CC1(C(=O)O)CCN(Cc2ccc(-c3noc(-c4ccc(C5CCCC5)c(Cl)c4)n3)cc2)CC1 [Example 7, 1-{4-[5-(3-chloro-4-cyclopentylphenyl)-[1,2,4]-oxadiazol-3-yl]benzyl}-4-methylpiperidine-4-carboxylic acid] | < 1 | < 1 | > 10000 | EC50 (EDG5): > 1000 nM; EC50 (EDG3): 581 nM |
| COCCOCC1(C(=O)O)CCN(Cc2ccc(-c3noc(-c4ccc(OC(C)C)c(Cl)c4)n3)cc2)CC1 [Example 47, 1-{4-[5-(3-Chloro-4-isopropoxy-phenyl)-[1,2,4]-oxadiazol-3-yl]-benzyl}-4-(2-methoxy-ethoxymethyl)-piperidine-4-carboxylic acid tert-butyl amine salt] | – | < 1 | – | – |
| O=C(O)C1(Cc2ccccc2)CCN(Cc2ccc(-c3noc(-c4ccc(-c5ccccc5)c(Cl)c4)n3)cc2)CC1 [Example 55, 4-Benzyl-1-{4-[5-(2-chloro-biphenyl-4-yl)-[1,2,4]-oxadiazol-3-yl]-benzyl}-piperidine-4-carboxylic acid tert-butyl amine salt] | – | < 1 | – | – |
| CC(C)Cc1ccc(-c2nc(-c3ccc(CN4CCC(CC5CC5)(C(=O)O)CC4)cc3)no2)cc1Cl [Example 63, 1-{4-[5-(3-Chloro-4-isobutyl-phenyl)-[1,2,4]-oxadiazol-3-yl]-benzyl}-4-cyclopropylmethyl-piperidine-4-carboxylic acid tert-butyl amine salt] | – | < 1 | – | – |
| COc1ccccc1CC1(C(=O)O)CCN(Cc2ccc(-c3noc(-c4ccc(CC(C)C)c(Cl)c4)n3)cc2)CC1 [Example 28, 1-{4-[5-(3-Chloro-4-isobutyl-phenyl)-[1,2,4]-oxadiazol-3-yl]-benzyl}-4-(2-methoxy-benzyl)-piperidine-4-carboxylic acid tert-butyl amine salt] | – | < 1 | – | – |
| COCC1(C(=O)O)CCN(Cc2ccc(-c3noc(-c4ccc(CC(C)C)c(Cl)c4)n3)cc2)CC1 [Example 16, 1-{4-[5-(3-Chloro-4-isobutylphenyl)-[1,2,4]-oxadiazol-3-yl]-benzyl}-4-methoxymethylpiperidine-4-carboxylic acid tert-butyl amine salt] | – | < 1 | – | – |
| CC(C)Cc1ccc(-c2nc(-c3ccc(CN4CCC(Cc5ccc(F)cc5)(C(=O)O)CC4)cc3)no2)cc1Cl [Example 25, 1-{4-[5-(3-Chloro-4-isobutyl-phenyl)-[1,2,4]-oxadiazol-3-yl]-benzyl}-4-(4-fluoro-benzyl)-piperidine-4-carboxylic acid tert-butyl amine salt] | – | < 1 | – | – |
| CC(C)Cc1ccc(-c2nc(-c3ccc(CN4CCC(COCc5ccccc5)(C(=O)O)CC4)cc3)no2)cc1Cl [Example 21, 4-Benzyloxymethyl-1-[4-{5-(3-chloro-4-isobutylphenyl)-[1,2,4]-oxadiazol-3-yl]-benzyl}piperidine-4-carboxylic acid tert-butyl amine salt] | – | < 1 | – | – |
| CC(C)Cc1ccc(-c2nc(-c3ccc(CN4CCC(C)(C(=O)O)CC4)cc3)no2)cc1 [Example 31, 1-{4-[5-(4-Isobutyl-phenyl)-[1,2,4]-oxadiazol-3-yl]-benzyl}-4-methyl-piperidine-4-carboxylic acid tert-butyl amine salt] | – | < 10 | – | – |
| COc1ccccc1OCCC1(C(=O)O)CCN(Cc2ccc(-c3noc(-c4ccc(CC(C)C)c(Cl)c4)n3)cc2)CC1 [Example 41, 1-{4-[5-(3-Chloro-4-isobutyl-phenyl)-[1,2,4]-oxadiazol-3-yl]-benzyl}-4-[2-(2-methoxy-phenoxy)-ethyl]-piperidine-4-carboxylic acid tert-butyl amine salt] | – | < 1 | – | – |
| O=C(O)C1(Cc2ccc(F)cc2)CCN(Cc2ccc(-c3noc(-c4ccc(-c5ccccc5)c(Cl)c4)n3)cc2)CC1 [Example 52, 1-{4-[5-(2-Chloro-biphenyl-4-yl)-[1,2,4]-oxadiazol-3-yl]-benzyl}-4-(4-fluoro-benzyl)-piperidine-4-carboxylic acid tert-butyl amine salt] | – | < 1 | – | – |
| CC(C)Cc1ccc(-c2nc(-c3ccc(CN4CCC[C@@H](C(=O)O)C4)cc3)no2)cc1 [compound 3] | – | – | – | Lymphopenia in rats % lymphopenia at 1 mpk/p.o dose 8 Hrs (circulating lymphocytes): −24%; Lymphopenia in rats % lymphopenia at 1 mpk/p.o dose 24 Hrs (circulating lymphocytes): −58%; EC50 (EDG-1; [2]): 56.6 nM |
